Measured values as given in patent US20100179203A1, “NOVEL PYRAZOLE DERIVATIVES USEFUL AS POTASSIUM CHANNEL MODULATORS” (priority 2007, published 2010).
pEC50: −log10 of the molar value.

Experiments:
BK channels = target: T1, BK channels (Homo sapiens, UniProt Q12791); assay: BK channel opening activity, two-electrode voltage clamp in Xenopus laevis oocytes; type: cell-based
T1 construct: expressed in transfected cells; host or cells: Xenopus laevis oocytes
Experimental: In this example the BK channel opening activity of Compound 9 (FIGS. 1A and 1B) is determined using BK channels heterologously expressed in Xenopus laevis oocytes.
The electrical current through the BK channel was measured using conventional two-electrode voltage clamp. BK currents were activated by repeating ramp protocols. In brief, the membrane potential was continuously changed from −120 mV to +120 mV within a 2 s period. The threshold for BK activation is approximately +30 mV under control conditions. Compounds were applied for 100 s during which the ramp protocol was repeated 10 times with 10 s intervals. In between the ramp protocols the membrane potential was clamped at −80 mV. The first three compound applications were control blanks where the current level is allowed to stabilize.
In order to evaluate the ability of the compounds to shift the BK activation curve towards lower membrane potentials, the BK current was transformed into conductance by using Ohm's law […], where g is the conductance, I is the current, Ememb is the membrane potential and Erev is the reversal potential. The extracellular solution for these experiments contained 2.5 mM K+ and the intracellular K+ concentration of an oocyte was estimated to be 100 mM. Under those conditions, Nernst equation predicts a reversal potential of Erev=−93.2 mV. The control conductance level at a membrane potential of +100 mV was calculated, and the compound effect was evaluated as the potential difference, ΔV, to the membrane potential at which the same conductance level was obtained in the presence of compound.
The concentration response curve for this potential difference was fitted to the sigmoidal logistic equation: ΔV=ΔVmax/(1+(EC50/[compound])^n), where ΔVmax represents the maximal left shift of the BK activation curve, EC50 is the concentration causing a half maximal response, and n is the slope coefficient.

T1 sequence (Q12791 whole entry): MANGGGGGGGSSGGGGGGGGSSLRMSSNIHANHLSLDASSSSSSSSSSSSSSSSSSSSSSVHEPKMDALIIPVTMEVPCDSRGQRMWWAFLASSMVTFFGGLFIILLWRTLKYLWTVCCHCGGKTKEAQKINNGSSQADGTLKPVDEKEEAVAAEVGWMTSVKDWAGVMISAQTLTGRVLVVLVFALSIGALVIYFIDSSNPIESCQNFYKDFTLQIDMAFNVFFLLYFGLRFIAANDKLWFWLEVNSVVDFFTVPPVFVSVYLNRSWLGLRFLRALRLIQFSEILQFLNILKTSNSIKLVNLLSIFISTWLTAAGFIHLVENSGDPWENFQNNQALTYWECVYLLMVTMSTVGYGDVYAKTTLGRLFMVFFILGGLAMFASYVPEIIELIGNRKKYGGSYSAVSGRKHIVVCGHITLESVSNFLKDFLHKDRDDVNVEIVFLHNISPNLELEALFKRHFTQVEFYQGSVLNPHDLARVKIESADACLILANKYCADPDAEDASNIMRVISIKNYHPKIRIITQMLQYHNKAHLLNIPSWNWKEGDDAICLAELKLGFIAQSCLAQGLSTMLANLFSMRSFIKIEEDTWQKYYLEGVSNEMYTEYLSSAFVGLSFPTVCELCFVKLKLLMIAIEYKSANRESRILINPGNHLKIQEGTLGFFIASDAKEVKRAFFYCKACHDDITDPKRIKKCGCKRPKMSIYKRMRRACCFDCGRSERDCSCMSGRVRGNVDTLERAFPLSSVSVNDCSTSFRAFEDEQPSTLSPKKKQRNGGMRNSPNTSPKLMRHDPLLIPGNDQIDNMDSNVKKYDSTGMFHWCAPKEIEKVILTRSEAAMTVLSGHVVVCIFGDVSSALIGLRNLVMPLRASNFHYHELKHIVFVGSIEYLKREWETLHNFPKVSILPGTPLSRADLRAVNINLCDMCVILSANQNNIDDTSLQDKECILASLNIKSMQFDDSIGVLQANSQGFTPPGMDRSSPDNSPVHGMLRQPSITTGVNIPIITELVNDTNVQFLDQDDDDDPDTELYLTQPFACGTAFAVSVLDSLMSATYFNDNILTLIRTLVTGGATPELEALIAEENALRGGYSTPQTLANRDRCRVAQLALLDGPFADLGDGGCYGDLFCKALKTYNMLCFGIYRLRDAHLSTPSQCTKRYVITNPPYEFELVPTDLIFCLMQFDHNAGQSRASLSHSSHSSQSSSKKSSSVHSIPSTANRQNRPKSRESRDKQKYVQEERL

melting point [°C]	SMILES	other results
	Clc1ccc(-c2nn(-c3ccc(Br)cc3)cc2CCc2nnn[nH]2)cc1 [Compound 9, 5-{2-[1-(4-Bromo-phenyl)-3-(4-chloro-phenyl)-1H-pyrazol-4-yl]-ethyl}-1H-tetrazole]	pEC50 (BK channels; BK channels heterologously expressed in Xenopus laevis oocytes, ramp -120 to +120 mV, 0.01-31.6 μM, fit of ΔV vs concentration, read-out: EC50 for the left-shift of the BK activation curve): 5.85; ΔVmax, maximal left shift of the BK activation curve (BK channels; BK channels heterologously expressed in Xenopus laevis oocytes, ΔV referred to control conductance at +100 mV, 0.01-31.6 μM): −96 mV; BK current level at depolarizing potentials (BK channels; increasing concentrations (0.01-31.6 μM) applied, Xenopus laevis oocytes): marked increase in the current level
128.4 to 130	COc1ccc(-n2cc(/C=C/c3nnn[nH]3)c(-c3ccc(Cl)c(F)c3)n2)cc1Cl [Compound 5, 5-{(E)-2-[3-(4-Chloro-3-fluorophenyl)-1-(3-chloro-4-methoxy-phenyl)-1H-pyrazol-4-yl]-vinyl}-1H-tetrazole]	
282.8 to 284.2	COc1ccc(-n2cc(/C=C(\C#N)C(=O)O)c(-c3ccc(Cl)c(F)c3)n2)cc1Cl [Compound 14, (E)-3-[3-(4-Chloro-3-fluoro-phenyl)-1-(3-chloro-4-methoxy-phenyl)-1H-pyrazol-4-yl]-2-cyano-acrylic acid]	
240.2 to 241.3	COc1ccc(-n2cc(/C=C/C(=O)O)c(-c3ccc(Cl)c(F)c3)n2)cc1Cl [Compound 3, (E)-3-[3-(4-Chloro-3-fluoro-phenyl)-1-(3-chloro-4-methoxy-phenyl)-1H-pyrazol-4-yl]-acrylic acid]	
216.8 to 218.2	COc1ccc(-n2cc(CC(=O)NS(C)(=O)=O)c(-c3ccc(Cl)c(F)c3)n2)cc1Cl [Compound 18, N-{2-[3-(4-Chloro-3-fluorophenyl)-1-(3-chloro-4-methoxy-phenyl)-1H-pyrazol-4-yl]-acetyl}-methanesulfonamide]	
200 to 201	O=c1[nH]c(Cc2cn(-c3cc(C(F)(F)F)cc(C(F)(F)F)c3)nc2-c2cccc(Cl)c2)no1 [Compound 17, 3-[1-(3,5-Bis-trifluoromethyl-phenyl)-3-(3-chloro-phenyl)-1H-pyrazol-4-ylmethyl]-4H-[1,2,4]oxadiazol-5-one]	
269.3 to 270.5	COc1ccc(-n2cc(/C=C/C(=O)NS(C)(=O)=O)c(-c3ccc(Cl)c(F)c3)n2)cc1Cl [Compound 6, N-{(E)-3-[3-(4-Chloro-3-fluoro-phenyl)-1-(3-chloro-4-methoxy-phenyl)-1H-pyrazol-4-yl]-acryloyl}-methanesulfonamide]	
